Source: patent US20230233425A1, “USE OF VOLATILE COMPOSITIONS TO LIMIT OR ELIMINATE THE PERCEPTION OF MALODOR” (Firmenich SA, priority 2017, published 2023)
Where two headings read alike, the source gives them in different places. Blank lines part the entries; values can stand above or below the compound they belong to.

Legend:
Olfr742 = Olfr742 (Mus musculus, UniProt A2RTP5); test: Indole antagonist dose-response, cAMP HTRF in HEK293T, vs indole EC80; format: cell-based; conditions: vs indole EC80; for Emax: HEK-293T, read-out: Olfr742 % Inhibition
Olfr740 = Olfr740 (Mus musculus, UniProt E9PV79); test: as above; format: cell-based; conditions: vs indole EC80; for Emax: HEK-293T, read-out: Olfr740 % Inhibition; for IC50: Table 22, first listing (r7-r45), read-out: Olfr740 IC50
Olfr741 = Olfr741 (Mus musculus, UniProt L7N1Y5); test: as above; format: cell-based
Olfr738 = Olfr738 (Mus musculus, UniProt L7N1X7); test: as above; format: cell-based; conditions: vs indole EC80; for IC50: Table 22, first listing (r7-r45), read-out: Olfr738 IC50
Olfr748 = Olfr748 (Mus musculus, UniProt E9Q9Z0); test: as above; format: cell-based; conditions: Table 23
Olfr746 = biological target: T1, Olfr746 (Mus musculus, UniProt E9Q840); test: as above; format: cell-based; conditions: Table 23
T1 construct: Flag; Rho tag; expressed in transfected cells
T1 sequence (E9Q840 1-314): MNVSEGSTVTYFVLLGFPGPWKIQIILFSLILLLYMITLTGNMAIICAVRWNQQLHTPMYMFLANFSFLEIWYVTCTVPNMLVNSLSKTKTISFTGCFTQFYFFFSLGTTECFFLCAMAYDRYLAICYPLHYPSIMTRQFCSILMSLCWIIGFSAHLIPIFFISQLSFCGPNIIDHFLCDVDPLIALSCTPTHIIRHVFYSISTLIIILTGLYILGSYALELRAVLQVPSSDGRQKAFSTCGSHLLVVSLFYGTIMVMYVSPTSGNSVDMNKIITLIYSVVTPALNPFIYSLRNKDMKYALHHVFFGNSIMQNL
Experimental: (§1) Functional dose-response experiments were performed to identify compounds capable of antagonizing indole-sensitive receptors previously identified (U.S. Pat. No. 9,914,760 B2). Using a cell-based assay, mouse receptor Olfr738, Olfr739, Olfr740, Olfr741, 0fr742, Olfr743, Olfr744, Olfr746, Olfr748 and Olfr749 were tested in an HEK293T cell line wherein the endogenous RTP1 gene has been activated and the odorant receptor chaperone was expressed (described in WO2016201153A1). The receptor genes were tagged with a Flag-Rho tag combination. Receptor genes were co-transfected with the canonical olfactory human G-protein alpha subunit Golf gene. Co-expression of the human Golf activates the Gs transduction pathway that leads to an internal cAMP increase upon binding to the appropriate ligand (indole here). Odorant-induced activity was detected by measuring the cAMP increase in the cytosol using an HTRF based kit (CisBio, cAMP dynamic 2 kit, cat. 62AM4PEJ). The receptors were exposed to binary mixtures of increasing concentrations of the test compounds in the presence of a potent activation concentration of indole (EC80) for each receptor. […] All the compounds listed decreased the indole induced activity of at least one receptor.

Olfr743 = Olfr743 (Mus musculus, UniProt L7N1Y2); test: as above; format: cell-based; conditions: Table 23
Experimental: as §1

Olfr744 = biological target: T2, Olfr744 (Mus musculus, UniProt Q7TRM0); test: as above; format: cell-based; conditions: Table 23
T2 construct: Flag; Rho tag; expressed in transfected cells
T2 sequence (Q7TRM0 1-323): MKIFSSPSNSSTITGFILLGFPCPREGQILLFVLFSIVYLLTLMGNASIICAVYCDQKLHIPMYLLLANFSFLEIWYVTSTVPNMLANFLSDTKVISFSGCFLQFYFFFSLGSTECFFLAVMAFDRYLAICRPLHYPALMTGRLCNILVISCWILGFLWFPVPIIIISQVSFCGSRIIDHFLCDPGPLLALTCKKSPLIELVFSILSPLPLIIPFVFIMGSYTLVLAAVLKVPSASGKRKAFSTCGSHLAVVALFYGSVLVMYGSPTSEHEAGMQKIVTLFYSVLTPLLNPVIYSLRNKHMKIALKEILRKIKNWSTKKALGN
Experimental: as §1

Olfr739 = Olfr739 (Mus musculus, UniProt E9Q1P0); test: as above; format: cell-based; conditions: for IC50: Table 22, first listing (r7-r45)
Experimental: as §1

Olfr749 = biological target: T3, Olfr749 (Mus musculus, UniProt E9Q438); test: as above; format: cell-based; conditions: Table 23
T3 construct: Flag; Rho tag; expressed in transfected cells
T3 sequence (E9Q438 1-313): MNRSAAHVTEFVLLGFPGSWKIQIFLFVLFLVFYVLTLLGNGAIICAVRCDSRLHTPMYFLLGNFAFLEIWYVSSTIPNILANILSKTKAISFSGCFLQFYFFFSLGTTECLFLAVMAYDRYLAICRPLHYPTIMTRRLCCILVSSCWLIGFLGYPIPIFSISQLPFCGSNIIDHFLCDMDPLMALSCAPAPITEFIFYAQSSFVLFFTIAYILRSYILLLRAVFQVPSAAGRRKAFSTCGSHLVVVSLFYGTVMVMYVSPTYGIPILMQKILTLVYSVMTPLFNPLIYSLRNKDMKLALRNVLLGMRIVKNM
Experimental: as §1

[1] = biological target: T4, OR51E1 olfactory receptor (Homo sapiens, UniProt Q8TCB6); test: Butyric acid olfactory receptor antagonist cell-based dose-response vs butyric acid EC80; conditions: Table 20, spiro analogues; for Emax: read-out: Inhibition (%)
T4 construct: expressed in transfected cells
T4 sequence (Q8TCB6 1-318): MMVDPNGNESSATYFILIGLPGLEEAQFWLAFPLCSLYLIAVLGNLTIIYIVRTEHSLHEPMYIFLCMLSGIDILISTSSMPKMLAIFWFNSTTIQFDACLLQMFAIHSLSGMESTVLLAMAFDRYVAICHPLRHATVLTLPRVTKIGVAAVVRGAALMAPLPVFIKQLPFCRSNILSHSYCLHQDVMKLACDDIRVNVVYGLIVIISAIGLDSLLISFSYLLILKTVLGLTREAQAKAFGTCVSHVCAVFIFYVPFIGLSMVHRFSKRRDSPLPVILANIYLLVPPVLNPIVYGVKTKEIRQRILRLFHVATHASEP

[2] = system: butyric acid malodor perception; test: Human sensory panel, perceived intensity of butyric acid; format: in vivo; conditions: Table 20
Experimental: The pleasantness of the compounds delivered alone (triangles, dashed-line) and in a mixture with butyric acid at isointense concentrations (squares, solid line). Many of these compounds are shown to inhibit the activity of a butyric acid olfactory receptor.
Malodor receptor antagonist systems and compositions were evaluated at a gas phase concentration of 3.4 microg/1 air. The sensory method to evaluate compositions required the use of specially designed air dilution olfactometers to achieve well controlled and stable gas phase concentrations of the compositions and of the malodor to the group of test subjects.
The 30 subjects first evaluated the malodor reconstitution alone and then rated the 3 attributes “Freshness”, “Pleasantness” and “malodor” (the malodor character) on a 0 to 10 scale. The next evaluation was performed 30 seconds later to avoid odor adaptation, the malodor reconstitution was injected together with the test composition in the olfactometer. Ratings for the same descriptors recorded.

[3] = system: 1-octen-3-ol mushroom/earthy/fungal odor perception; test: Human sensory performance of test compounds with and without 1-octen-3-ol; format: in vivo; conditions: Test Compound Only
[4] = system: geonol earthy/moss odor perception; test: Human sensory performance of test compounds with and without geonol; format: in vivo; conditions: Test Compound Only
How it was run: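 Panelists first learned the earthy/moss quality from a geonol-only reference, then rated pleasantness, earthy/moss intensity and overall intensity of geonol alone, antagonist alone, and geonol mixed with isointense or low-intensity antagonist on a 0-10 linear scale. Samples were presented in glass jars in randomized order with two-minute intervals.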

[5] = system: geonol receptors Olfr339, Olfr1487, Olfr1A1, OR11A1, Olfr96; test: Antagonists of geonol receptors (Example 11); format: cell-based, mouse and human; parameters: Inhibition(%): concentration or dose not given beside the values; conditions: Table 18
[6] = system: OR2W1 or the OR1A1 olfactory receptor; test: 1-octen-3-ol olfactory receptor antagonist cell-based dose-response vs 1-octen-3-ol EC80
From the text: Each cell line was screened with a volatile compound library for their inhibitory properties and potential 1-octen-3-ol smell inhibition.
Single concentration monitoring of the 1-octen-3-ol induced cell activity in the presence or absence of a test compound allowed for the identification of compounds with a putative suppression or inhibitory effect.

[7] = Table 22, second listing of the same compounds

Olfr748, sequence (E9Q9Z0 entry or part of it): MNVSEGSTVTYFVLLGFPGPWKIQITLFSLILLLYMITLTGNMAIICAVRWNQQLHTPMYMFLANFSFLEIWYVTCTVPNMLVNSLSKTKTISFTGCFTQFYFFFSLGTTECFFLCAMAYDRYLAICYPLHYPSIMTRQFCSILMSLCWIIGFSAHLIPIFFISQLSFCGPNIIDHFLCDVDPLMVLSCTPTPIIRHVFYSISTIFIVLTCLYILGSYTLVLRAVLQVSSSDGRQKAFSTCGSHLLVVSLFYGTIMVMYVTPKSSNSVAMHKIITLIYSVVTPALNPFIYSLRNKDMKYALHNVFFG
Olfr741, sequence (L7N1Y5 entry or part of it): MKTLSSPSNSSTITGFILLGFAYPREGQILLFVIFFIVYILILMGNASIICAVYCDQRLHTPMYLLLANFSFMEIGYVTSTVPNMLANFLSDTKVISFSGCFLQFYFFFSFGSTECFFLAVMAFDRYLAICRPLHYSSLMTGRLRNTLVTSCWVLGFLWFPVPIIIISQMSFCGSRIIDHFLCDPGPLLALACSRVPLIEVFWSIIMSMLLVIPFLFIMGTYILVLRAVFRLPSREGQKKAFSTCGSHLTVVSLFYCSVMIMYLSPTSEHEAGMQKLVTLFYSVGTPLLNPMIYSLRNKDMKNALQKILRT
Olfr742, sequence (A2RTP5 entry or part of it): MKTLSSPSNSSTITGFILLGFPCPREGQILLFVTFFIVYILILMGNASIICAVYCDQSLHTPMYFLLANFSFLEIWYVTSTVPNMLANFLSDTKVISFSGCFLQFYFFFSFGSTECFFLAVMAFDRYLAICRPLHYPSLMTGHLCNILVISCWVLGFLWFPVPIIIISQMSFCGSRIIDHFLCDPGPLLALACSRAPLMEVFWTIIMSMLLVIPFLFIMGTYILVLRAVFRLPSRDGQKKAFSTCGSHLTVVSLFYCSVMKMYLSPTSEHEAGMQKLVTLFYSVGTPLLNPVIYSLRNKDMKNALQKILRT
Olfr738, sequence (L7N1X7 entry or part of it): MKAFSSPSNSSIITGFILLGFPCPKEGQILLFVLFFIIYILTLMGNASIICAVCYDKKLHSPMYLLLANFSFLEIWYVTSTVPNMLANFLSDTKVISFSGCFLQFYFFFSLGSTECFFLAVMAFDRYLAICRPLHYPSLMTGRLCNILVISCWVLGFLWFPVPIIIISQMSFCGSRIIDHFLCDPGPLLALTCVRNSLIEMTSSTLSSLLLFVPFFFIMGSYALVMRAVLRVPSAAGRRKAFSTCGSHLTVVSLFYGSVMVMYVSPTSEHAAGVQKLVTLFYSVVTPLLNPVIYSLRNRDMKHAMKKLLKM
Olfr740, sequence (E9PV79 entry or part of it): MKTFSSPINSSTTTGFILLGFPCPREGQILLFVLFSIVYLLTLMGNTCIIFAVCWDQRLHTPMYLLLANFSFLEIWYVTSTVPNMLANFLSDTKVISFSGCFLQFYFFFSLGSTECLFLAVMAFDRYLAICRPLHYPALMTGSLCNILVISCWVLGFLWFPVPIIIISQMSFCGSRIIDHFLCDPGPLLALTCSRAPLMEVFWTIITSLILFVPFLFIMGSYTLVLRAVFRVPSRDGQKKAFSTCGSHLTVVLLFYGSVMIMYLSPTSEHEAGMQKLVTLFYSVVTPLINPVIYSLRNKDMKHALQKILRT
Olfr743, sequence (L7N1Y2 entry or part of it): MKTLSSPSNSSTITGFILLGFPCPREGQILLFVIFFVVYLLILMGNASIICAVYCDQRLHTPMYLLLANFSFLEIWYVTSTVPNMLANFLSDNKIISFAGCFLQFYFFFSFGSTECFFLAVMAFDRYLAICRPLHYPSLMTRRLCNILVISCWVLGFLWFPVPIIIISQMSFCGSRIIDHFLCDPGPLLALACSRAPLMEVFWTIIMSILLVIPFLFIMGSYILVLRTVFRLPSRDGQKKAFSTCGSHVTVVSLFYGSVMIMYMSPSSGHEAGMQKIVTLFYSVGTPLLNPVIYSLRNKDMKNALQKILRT
Olfr739, sequence (E9Q1P0 entry or part of it): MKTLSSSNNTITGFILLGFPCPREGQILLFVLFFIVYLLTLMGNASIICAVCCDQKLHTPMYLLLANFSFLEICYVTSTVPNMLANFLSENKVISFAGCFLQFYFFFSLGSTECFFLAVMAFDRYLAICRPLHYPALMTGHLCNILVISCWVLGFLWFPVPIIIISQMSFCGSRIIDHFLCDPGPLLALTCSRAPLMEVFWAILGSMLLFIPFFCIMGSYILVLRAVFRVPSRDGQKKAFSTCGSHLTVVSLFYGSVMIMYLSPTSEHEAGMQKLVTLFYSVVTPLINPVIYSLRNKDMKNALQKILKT

SMILES: C=C1CC[C@H]2O[C@]2(C)CC[C@@H]2[C@@H]1CC2(C)C
- Emax (Olfr742; Table 22, first listing): 63%
- Emax (Olfr742; [7]): 91.7%
- IC50 (Olfr742; Table 22, first listing (r7-r45), read-out: Olfr742 IC50): 99.1 µM
- Emax (Olfr740; Table 22, first listing): 203%
- Emax (Olfr740; [7]): 13.2%
- IC50 (Olfr740): 13.4 µM
- IC50 (Olfr741; Table 22, first listing): 108 µM
- Olfr741 % Inhibition (Olfr741; Table 22, first listing): 59.56%
- IC50 (Olfr741; [7]): 121 µM
- Olfr741 % Inhibition (Olfr741; [7]): 9.24%
- IC50 (Olfr738): 18.1 µM
- Olfr738 % Inhibition (Olfr738; Table 22, first listing): 54.69%
- Olfr738 % Inhibition (Olfr738; [7]): 38.36%
- IC50 (Olfr748): 121 µM
- Olfr748 % Inhibition (Olfr748): 9.24%
- IC50 (Olfr746): 85.9 µM
- Olfr746 % Inhibition (Olfr746): 13.17%
- IC50 (Olfr743): 192 µM
- Olfr743 % Inhibition (Olfr743): 38.36%
- IC50 (Olfr744): 113 µM
- Olfr744 % Inhibition (Olfr744): 55.20%
- Olfr739 % Inhibition (Olfr739; Table 22, first listing): 102.21%
- IC50 (Olfr739): 19.5 µM
- Olfr739 % Inhibition (Olfr739; [7]): 55.20%
- IC50 (Olfr749): 61.3 µM
- Olfr749 % Inhibition (Olfr749): 91.71%

SMILES: CC(=O)OC1C(C)(C)CCCC12CC(C)C(C)C2 (stereo not drawn)
- IC50 [1]: 51.4 µM
- Emax [1]: 62%
- Sensory Performance (%) [2]: 50%

SMILES: CC1=C(C)CC2(CCCC(C)(C)C2O)C1 (stereo not drawn) [2,3,9,9-tetramethylspiro[4.5]dec-2-en-10-ol]
- IC50 [1]: 78.7 µM
- Emax [1]: 16%
- Sensory Performance (%) [2]: 60%

SMILES: CC1=C(C)CC2(CCCC(C)(C)C2=O)C1 [2,3,9,9-tetramethylspiro[4.5]dec-2-en-10-one]
- Sensory Performance (%) [2]: 56%

SMILES: CC(=O)OC1C(C)(C)CCCC12CC(C)=C(C)C2 (stereo not drawn) [(2,3,9,9-tetramethylspiro[4.5]dec-2-en-10-yl) acetate]
- IC50 [1]: > 600 µM
- Emax [1]: 116%
- Sensory Performance (%) [2]: 40%

Now from value to compound, other results behind:

- IC50 [1]: 72.3 µM
- Emax [1]: 72%
SMILES: CC(=O)OC1C(C)(C)CCCC12C(C)C=CCC2C (stereo not drawn)
- Sensory Performance (%) [2]: 43%

- IC50 [5]: 96.7 µM
- IC50 ([6]; 1-octen-3-ol at EC80): 63.2 µM
- Emax (Olfr740; Table 22, first listing): 127%
- IC50 (Olfr740): 1.96 µM
- IC50 (Olfr741; Table 22, first listing): 148 µM
- Olfr741 % Inhibition (Olfr741; Table 22, first listing): 96.86%
- IC50 (Olfr738): 2.74 µM
- Olfr738 % Inhibition (Olfr738; Table 22, first listing): 101.72%
- IC50 (Olfr748): 106 µM
- Olfr748 % Inhibition (Olfr748): 65.60%
- IC50 (Olfr746): 308 µM
- Olfr746 % Inhibition (Olfr746): 81.36%
- IC50 (Olfr743): 264 µM
- Olfr743 % Inhibition (Olfr743): 123.10%
- IC50 (Olfr744): 74.7 µM
- Olfr744 % Inhibition (Olfr744): 107.89%
- Olfr739 % Inhibition (Olfr739; Table 22, first listing): 68.44%
- IC50 (Olfr739): 13.9 µM
- IC50 (Olfr749): 41.5 µM
- Olfr749 % Inhibition (Olfr749): 96.98%
SMILES: CC1(C)CCC[C@]2(C)CC(=O)CC[C@@H]12 (racemic) [(+−)-perhydro-5,5,8A-trimethyl-2-trans-naphthalenone]
- % Mushroom/Earthy/Fungal Odor [3]: 30.80%
- % Earthy/Moss Odor [4]: 45.20%
- Inhibition(%) [5]: 71%
- % Inhibition ([6]; maximum inhibition normalized to baseline agonist activity): 102.97%

- IC50 [1]: 46.6 µM
- Emax [1]: 103%
SMILES: C=C(C)CC1(CC(=C)C)CCCC(C)(C)C1=O [2,2-dimethyl-6,6-bis(2-methylprop-2-enyl)cyclohexan-1-one]
- Sensory Performance (%) [2]: 50%
